From patent publication US10428124B2, “Timothy grass allergens and methods and uses for immune response modulation” (LA JOLLA INSTITUTE FOR ALLERGY AND IMMUNOLOGY, priority 2012, dated 2019)

How the values were obtained:
[1] = test system: PBMCs from TG allergic donors; test: IL-5 ELISPOT of TG extract-expanded PBMCs from TG allergic donors (peptide pools, single peptides, TG extract); format: cell-based, human
Experimental: Each donor was recruited following Institutional Review Board approval (Federal Wide Assurance number 00000032) and informed consent and assigned a study identification number. Donors were tested for allergen reactivity by skin prick tests to extracts from 32 common allergens. TG allergic donors were identified as having a skin reaction with a wheal of 5 mm in diameter to TG and a clinical history consistent with seasonal grass pollen allergy. Donors that had received specific immunotherapy were excluded. Non-allergic donors were identified as having negative skin prick tests to all allergens and no clinical history of allergy.
PBMCs were isolated by density gradient centrifugation from one unit of blood (˜450 ml) and cryo-preserved as described previously (12). For in vitro expansions, PBMCs were thawed and cultured in RPMI 1640 (Ω Scientific, Tarzana, Calif.) supplemented with 5% human AB serum (Cellgro, Herndon, Va.) at a density of 2×10^6 cells/ml in 24-well plates (BD Biosciences, San Jose, Calif.) and stimulated with TG pollen extract ([…]) (Greer, Lenoir, N.C.). Cells were kept at 37° C., 5% CO2 and additional IL-2 and IL-7 (10 U/ml, eBioscience, San Diego, Calif.) was added every 3 d after initial antigenic stimulation. On day 14, cells were harvested and screened for reactivity against TG-specific peptide pools (16-25 peptides/pool, averaging 20 peptides/pool). On day 17, peptides from positive pools were tested individually to identify the reactive epitopes.
The production of IL-5 from cultured PBMCs in response to antigen stimulation was measured by ELISPOT as described previously (12). Briefly, 1×10^5 cells/well were incubated with peptide, peptide pool or TG extract (10 μg/ml, 5 μg/ml and 50 μg/ml, respectively). After 24 h, cells were removed and plates were incubated with 2 μg/ml biotinylated anti-human IL-5 Ab (Mabtech) at 37° C. After 2 h, plates were washed and avidin-peroxidase-complex was added (Vector Laboratories, Burlingame, Calif.) for 1 h at RT. Peroxidase-conjugated spots were developed with 3-amino-9-ethylcarvazole solution (Sigma-Aldrich, St. Louis, Mo.). Criteria for peptide pool positivity were 100 SFCs/106 PBMCs, p 0.05, and a stimulation index (SI) 2. Criteria for individual peptides were the same except a minimum of 20 SFCs was counted as positive.

human IgE = test: 2D gel immunoblot of TG extract with serum pool from 8 TG-allergic donors, IgE reactivity; format: binding; conditions: for Antibody reactvity IgE/IgG: IgE: E− = not IgE reactive
Experimental: (§1) 2D DIGE (Difference Gel Electrophoresis) analysis. The complete 2D DIGE analysis was performed by Applied Biomics (Hayward, Calif., US). Briefly, TG extract was run on two 2D gels (3-10 pH range, 12% SDS-acrylamide gel), one was Coomassie blue stained, the other was blotted onto a nitrocellulose membrane. The membrane was then incubated with 5% dried milk in PBS/0.05% Tween to block non-specific binding and subsequently probed with a serum pool from 8 TG-allergic individuals at a dilution of 1:250. IgE and IgG binding was detected using goat anti-human IgE and rabbit anti-human IgG (Sigma-Aldrich, St. Louis, Mo.) and visualized using Cy2-conjugated donkey anti-goat IgG and Cy5-conjugated donkey […] IgG antibodies (Biotium, Hayward, Calif.).
(§2) Mass spectral protein identification was performed by Applied Biomics (Hayward, Calif., US). Briefly, spots of interest were selected from the 2D blot and the corresponding spots were identified on the stained SDS gel and cut out, washed several times to remove staining dye and other inhibitory chemicals. The spots were then dried to absorb maximum digestion buffer. Dried 2D gel spots were rehydrated in digestion buffer containing trypsin. Proteins were digested in-gel at 37° C. and then extracted from the gel with TFA extraction buffer. Subsequently the peptides were desalted using C-18 Zip-tips (Millipore) and mixed with CHCA matrix (alpha-cyano-4-hydroxycinnamic acid) and spotted into wells of a MALDI plate. Mass spectra of the peptides in each sample were obtained using an Applied Biosystems Proteomics Analyzer. The spectra were compared to the amino acid sequences encoded by putative ORFs from the de novo assembled TG pollen transcripts. […] The amino acid sequences encoded by these ORFs were clustered using a custom script at a sequence similarity threshold of 90% to group together highly similar protein sequences. These sequences are encoded by different transcripts from the current assembly, which could arise from splice variants, allelic variation between cells of TG pollen, and from gene families with multiple members. Amino acid sequences that form one cluster are assigned one putative protein ID (Table 1).

human IgG = test: 2D gel immunoblot of TG extract with serum pool from 8 TG-allergic donors, IgG reactivity; format: binding
Experimental: as §1, §2

[2] = test system: PBMCs from TG allergic donors; test: IFNg ELISPOT of TG extract-expanded PBMCs from TG allergic donors (single peptides); format: cell-based, human; conditions: T cell recognition in TG allergic patients; for Total response IFNg Events: number of positive responses
[3] = test system: PBMCs from TG allergic donors; test: as above; format: cell-based, human; conditions: TG allergic patients; number of positive responses
[4] = test system: PBMCs from TG allergic donors; test: IFNg ELISPOT of TG extract-expanded PBMCs (single peptides); format: cell-based, human; conditions: for Total response IFNg Events: number of positive response events to the 15-mer peptide
[5] = test system: PBMCs from TG allergic donors; test: IFNg ELISPOT of TG extract-expanded PBMCs from TG allergic donors (single peptides); format: cell-based, human; conditions: T cell recognition in TG allergic patients; number of response events
[6] = test system: PBMCs from TG allergic donors; test: as above; format: cell-based, human; conditions: number of positive response events
[7] = T cell recognition in TG allergic patients, number of positive responses
[8] = reactivity of the parent TG antigen, given per peptide
[9] = reactivity of the parent TG antigen, given per peptide, G− = not IgG reactive
[10] = number of positive response events to the 15-mer peptide
[11] = reactivity of the parent antigen
[12] = reactivity of the parent antigen, G+ = IgG reactive, G− = not

882 (DVYPTVCLPMCVCVL; Phleum pratense) [Peptide 882]
Total response IL-5 Events [1, 7]: 0
Antibody reactvity IgE/IgG: IgE (human IgE; [8]): E−
Antibody reactvity IgE/IgG: IgG (human IgG; [9]): G−
Total response IFNg Events [2]: 0

82109 (GDLYIFESRAICKYA; Phleum pratense) [Peptide 82109]
Total response IL-5 SFC ([1]; 15-mer peptide): 290 SFC
Total response IL-5 Events ([1]; TG allergic patients, number of positive responses): 1
Total response IL-5 SFC ([1]; TG allergic patients, total spot-forming cells): 290 SFC
Total response IL-5 Events [1, 10]: 1
Antibody reactvity IgE/IgG (IgE part) (human IgE; IgE reactivity of the parent antigen): E−
Antibody reactvity IgE/IgG: IgE (human IgE; [11]): E−
Antibody reactvity IgE/IgG (IgG part) (human IgG; IgG reactivity of the parent antigen): G−
Antibody reactvity IgE/IgG: IgG (human IgG; [12]): G−
Total response IFNg Events [3]: 0
Total response IFNg Events [4]: 0

86231 (IMQLLRDNLTLWTSD; Phleum pratense) [Peptide 86231]
Total response IL-5 Events [1, 7]: 0
Total response IL-5 Events [1, 10]: 0
Antibody reactvity IgE/IgG: IgE (human IgE; [8]): E−
Antibody reactvity IgE/IgG: IgE (human IgE; [11]): E−
Antibody reactvity IgE/IgG: IgG (human IgG; [9]): G−
Antibody reactvity IgE/IgG: IgG (human IgG; [12]): G−
Total response IFNg SFC [2]: 73 SFC
Total response IFNg Events [2]: 1
Total response IFNg SFC ([4]; 15-mer peptide): 73 SFC
Total response IFNg Events [4]: 1

30285 (VFNDDIQGTASVVLA; Phleum pratense) [Peptide 30285]
Total response IL-5 Events ([1]; IL-5, number of positive response events): 1
Total response IL-5 SFC ([1]; IL-5, total SFC): 67 SFC
Total response IL-5 SFC ([1]; T cell recognition in TG allergic patients): 67 SFC
Total response IL-5 Events ([1]; T cell recognition in TG allergic patients, number of response events): 1
Antibody reactvity IgE/IgG (IgE part) (human IgE; E+ / E− part of the cell, reactivity of the parent antigen): E+
Antibody reactivity IgE/IgG: IgE (human IgE; IgE reactivity (E+/E−) of the source antigen of the peptide): E+
Antibody reactvity IgE/IgG (IgG part) (human IgG; G+ / G− part of the cell, reactivity of the parent antigen): G−
Antibody reactivity IgE/IgG: IgG (human IgG; IgG reactivity (G+/G−) of the source antigen of the peptide): G−
Total response IFNg Events [5]: 0
Total response IFNg Events [6]: 0
